Laboratory results reported in patent US20230210838A1, “METHODS FOR TREATING CANCER OR VON-HIPPEL LINDAU DISEASE USING A COMBINATION OF A HIF-2 ALPHA INHIBITOR AND LENVATINIB” (Merck Sharp & Dohme LLC, priority 2020, published 2023).
“And” between values parts separate entries of the source, which are not always exact repeats. Equal entries are not always repeated.

Assays:
[1] = tested on: UMRC2 human VHL-deficient renal cell carcinoma xenograft; experiment: VHL-deficient renal cell carcinoma xenograft tumor model; assay type: in vivo; settings: for anti-tumor activity compared to the vehicle control group: Day 34, one-way ANOVA with Tukey's multiple comparisons; for Final CRs: complete tumor regressions at end of study; for Final CRs / Final PRs: 10 mice per group; for Final PRs: partial tumor regressions at end of study; for TGI: respective to Vehicle-treated animals at Day 34, MK-6482 3 mg/kg BID oral, Lenvatinib 10 mg/kg QD oral
Method: Prior to treatment initiation, female SCID Beige mice aged 7 weeks weighing between 18 to 21 grams were anesthetized and inoculated subcutaneously on the rear flank with single cell suspension of approximately 95% viable log-phase sub-confluent UMRC2 (5.0×10^6) cells in 0.1 mL of serum-free Dulbecco's Modified Eagle Medium (DMEM) to initiate tumor development. Treatment was initiated when the mean tumor volume of inoculated animals reached approximately 205 mm^3. Mice were pair-matched into 4 treatment groups consisting of 10 mice per group. Treatment groups consisted of: 1) 0.5% methylcellulose+0.5% Tween 80 (Vehicle); 2) MK-6482; 3) Lenvatinib; 4) MK-6482+Lenvatinib. Vehicle and MK-6482 were orally gavage-dosed twice daily (BID) at 3 mg/kg body weight. Lenvatinib was orally dosed once daily (QD) at 10 mg/kg body weight. Treatment began on Day 0 and completed on Day 34. —Caliper measurements of tumors and body weights were captured twice weekly. Statistical analysis was performed by one-way ANOVA with Tukey's multiple comparisons tests at the end of the study, Day 34.
CRs were defined as no observable tumor whereas PRs were tumors whose volume was lower than the original tumor size when treatment began.

advanced RCC = experiment: FIH Phase 1 study, best response by RECIST v1.1 in previously treated advanced RCC; assay type: in vivo, human; settings: 120 mg QD, 55 participants with previously treated advanced RCC
Method: A FIH Phase 1 study designed to assess the tolerability, safety, PK, and PD properties of MK-6482 in participants with various advanced solid tumors is ongoing. As of 6 Sep. 2019 a total of 104 participants had been enrolled, including 43 participants with various advanced solid tumors in the dose-escalation portion (Part 1A) ranging from 20 to 240 mg QD and 120 mg BID. The MTD was not reached and 2 treatment-related DLTs were observed: 1 Grade 4 event of thrombocytopenia in the 240 mg QD cohort, and 1 Grade 3 event of hypoxia in the 120 mg BID cohort. The 120 mg QD dose was selected for further clinical development based on favorable PK, pharmacodynamic, and safety findings. 52 additional participants with advanced RCC were treated in an expansion cohort (Part 1B) at the clinical dose of 120 mg QD. […] In total, 55 participants with previously treated advanced RCC have been treated in this study with MK-6482 at 120 mg QD (3 patients in the dose-escalation portion of the study and 52 participants in the dose expansion portion of the study). Best response among these 55 participants included 11 participants (20%) with PR and 32 participants (58%) with SD as assessed by RECIST v1.1.

[2] = Phase 2 open-label efficacy and safety study in VHL disease associated RCC; assay type: in vivo, human; settings: 120 mg QD, 61 participants with VHL disease associated RCC
Excerpt: A Phase 2, open-label efficacy and safety study in participants with VHL disease associated RCC is ongoing. As of 6 Sep.

[3] = FIH Phase 1 study of tolerability, safety, PK of MK-6482 in participants with advanced solid tumors; assay type: in vivo, human
Method: As of 6 Sep. […] 52 additional participants with advanced RCC were treated in an expansion cohort (Part 1B) at the clinical dose of 120 mg QD.

[4] = Phase 1 cross-over study of the effect of food on the PK of MK-6482 in healthy volunteers; assay type: in vivo, human; settings: single dose 120 mg, healthy female adult volunteers
[5] = combined dose escalation and expansion cohorts

Compound | anti-tumor activity compared to the vehicle control group [1] | Final CRs [1] | Final PRs [1] | TGI [1] [%] | best response PR, number of participants (advanced RCC) [participants] | best response PR, share of participants (advanced RCC) [%] | best response SD, number of participants (advanced RCC) [participants] | best response SD, share of participants (advanced RCC) [%] | most common AE of ≥Grade 3 toxicity (fatigue), share of participants [2] [%] | accumulation from Day 1 to Day 15 ([3]; 120 mg QD expansion cohort (Part 1B)) [fold] | treatment-related DLTs observed (number) ([3]; 1 Grade 4 thrombocytopenia in 240 mg QD cohort, 1 Grade 3 hypoxia in 120 mg BID cohort) | most common AEs (anemia, fatigue, dyspnea, nausea, peripheral edema), share of participants [3, 5] [%] | most common Grade 3 AEs (anemia and hypoxia), share of participants [3, 5] [%] | MTD ([3]; dose escalation (Part 1A) 20 to 240 mg QD and 120 mg BID) | Cmax ([3]; human, in vivo, 120 mg QD expansion cohort (Part 1B), Day 15, read-out: mean steady state Cmax) | half-life ([3]; human, in vivo, 120 mg QD expansion cohort (Part 1B), Day 15, read-out: mean steady state t1/2 (converted)) [h] | delay of time to peak MK-6482 exposure, median difference (Fed—Fasted) [4] [h] | most common adverse event (headache), incidence [4] [%] | effect of high fat, high calorie meal on extent of MK-6482 exposure ([4]; fed vs fasted) | lowering of maximum plasma MK-6482 concentration by high fat, high calorie meal ([4]; fed vs fasted)
COc1cc2nccc(Oc3ccc(NC(=O)NC4CC4)c(Cl)c3)c2cc1C(N)=O [Lenvatinib, 4-[3-chloro-4-(cyclopropylaminocarbonyl)aminophenoxy]-7-methoxy-6-quinolinecarboxamide] | significant anti-tumor activity | 0/10 PRs, 0/10 CRs | 0/10 PRs, 0/10 CRs | 83 | – | – | – | – | – | – | – | – | – | – | – | – | – | – | – | –
CS(=O)(=O)c1ccc(Oc2cc(F)cc(C#N)c2)c2c1[C@H](O)[C@H](F)[C@@H]2F [MK-6482, 3-[(1S,2S,3R)-2,3-difluoro-1-hydroxy-7-methylsulfonyl-indan-4-yl]oxy-5-fluoro-benzonitrile] | significant anti-tumor activity | 0/10 | 1/10 | 51 | 11 | 20 | 32 | 58 | ≥ 5 | 1.5 | 2 | ≥ 20 | ≥ 5 | not reached | 1790 ng/mL and 4.67 µM | 15.4 | 2 | 12.5 | did not affect | approximately 35%
